The record followed here is ChEMBL document CHEMBL3994582, “A2B adenosine receptor antagonists: Design, synthesis and biological evaluation of novel xanthine derivatives” (Eur J Med Chem, 2017).

Calls of active or inactive are those of the source. No cut-off for these calls is given here.

Data set [1] can be described thus: Oral bioavailability in C57BL/6J mouse at 10 mg/kg via gavage by LC-MS/MS analysis. Type of data set: ADME, organism-based. The following applies: in vivo.
Data set [2] concerns the target T1, Adenosine receptor A2a (Homo sapiens, UniProt P29274). Description: Displacement of [3H]-ZM-241385 from human adenosine receptor A2a expressed in HEK293 cell membranes after 90 mins by liquid scintillation counting method. Background: Loss of bound radioactivity is the signal in a displacement assay; it reports binding, not function.
The test system of data set [3] is Liver. The experiment in a line: Metabolic stability in mouse liver microsomes assessed as metabolic rate per mg protein preincubated for 5 mins followed by NADPH addition measured up to 30 mins by LC-MS/MS analysis. Type of data set: ADME, microsome. The following applies: 0.5 h. On the technique in general: Liver microsomes are vesicles of endoplasmic reticulum, rich in cytochrome P450 enzymes.

Data set [4] has as its target T2, Adenosine receptor A1 (Homo sapiens, UniProt P30542).
T2 sequence (P30542 whole entry): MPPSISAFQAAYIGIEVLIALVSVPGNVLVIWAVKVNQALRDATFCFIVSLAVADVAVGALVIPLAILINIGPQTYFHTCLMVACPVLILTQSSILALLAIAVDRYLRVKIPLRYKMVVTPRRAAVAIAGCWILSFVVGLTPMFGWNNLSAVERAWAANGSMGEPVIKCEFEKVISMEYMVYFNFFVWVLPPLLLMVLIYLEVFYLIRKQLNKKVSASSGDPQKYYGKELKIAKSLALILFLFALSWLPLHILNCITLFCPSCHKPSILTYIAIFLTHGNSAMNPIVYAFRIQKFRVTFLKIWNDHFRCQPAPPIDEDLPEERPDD
Description: Displacement of [3H]DPCPX from human adenosine receptor A1 expressed in HEK293 cell membranes after 90 mins by liquid scintillation counting method.

Data set [5] is filed under the species Homo sapiens. Description: Selectivity ratio of Ki for human adenosine receptor A1 expressed in HEK293 cell membranes to Ki for human adenosine receptor A2b expressed in HEK293 cell membranes. Type of data set: cell-based.
In data set [6] the test system is Liver. The experiment in a line: Metabolic stability in human liver microsomes assessed as metabolic rate per mg protein preincubated for 5 mins followed by NADPH addition measured up to 30 mins by LC-MS/MS analysis. Type of data set: ADME, microsome. The following applies: 0.5 h.
The species named for data set [7] is Homo sapiens. Description: Selectivity ratio of Ki for human adenosine receptor A2a expressed in HEK293 cell membranes to Ki for human adenosine receptor A2b expressed in HEK293 cell membranes. Type of data set: cell-based.
Data set [8] in a line: Cmax in C57BL/6J mouse at 10 mg/kg, po via gavage by LC-MS/MS analysis. Type of data set: ADME, organism-based. Further details: dose 10 mg/kg, route oral. The note with it: in vivo.
Data set [9] has as its target T3, Adenosine receptor A2b (Homo sapiens, UniProt P29275).
T3 sequence (P29275 whole entry): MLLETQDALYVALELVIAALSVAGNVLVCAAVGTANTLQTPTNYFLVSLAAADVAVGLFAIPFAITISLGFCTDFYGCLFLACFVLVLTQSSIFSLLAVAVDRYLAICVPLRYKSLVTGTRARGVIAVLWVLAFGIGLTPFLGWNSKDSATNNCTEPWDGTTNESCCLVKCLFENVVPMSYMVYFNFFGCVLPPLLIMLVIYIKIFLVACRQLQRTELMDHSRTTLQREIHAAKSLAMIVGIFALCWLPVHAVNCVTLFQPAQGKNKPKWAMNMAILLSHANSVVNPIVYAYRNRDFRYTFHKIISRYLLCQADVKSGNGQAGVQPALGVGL
Description: Displacement of [3H]-MRS-1754 from human adenosine receptor A2b expressed in HEK293 cell membranes after 90 mins by liquid scintillation counting method.

Data set [10] deals with T4, Adenosine receptor A3 (Homo sapiens) (UniProt P0DMS8).
T4 sequence (whole entry): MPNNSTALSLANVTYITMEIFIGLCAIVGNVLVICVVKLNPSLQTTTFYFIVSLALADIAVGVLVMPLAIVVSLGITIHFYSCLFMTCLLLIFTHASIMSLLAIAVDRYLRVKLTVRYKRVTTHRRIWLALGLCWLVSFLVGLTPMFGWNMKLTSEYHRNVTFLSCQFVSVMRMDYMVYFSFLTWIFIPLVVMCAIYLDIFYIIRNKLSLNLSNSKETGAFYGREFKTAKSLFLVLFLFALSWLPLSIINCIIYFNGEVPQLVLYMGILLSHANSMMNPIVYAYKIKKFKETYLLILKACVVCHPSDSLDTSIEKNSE
Description: Displacement of [3H]-HEM-ADO from human adenosine receptor A3 expressed in HEK293 cell membranes at 1 uM after 90 mins by liquid scintillation counting method relative to control.

The target in data set [11] is T5, Adenosine receptor A1 (Homo sapiens) (UniProt P30542).
T5 sequence (whole entry): T2 sequence (P30542 whole entry)
The experiment in a line: Displacement of [3H]DPCPX from human adenosine receptor A1 expressed in HEK293 cell membranes at 0.1 uM after 90 mins by liquid scintillation counting method relative to control.

The nature of data set [12]: AUC(0 to t) in C57BL/6J mouse at 10 mg/kg, po via gavage by LC-MS/MS analysis. Type of data set: ADME, organism-based. The following applies: in vivo.
Data set [13] in a line: Half life in C57BL/6J mouse at 10 mg/kg, po via gavage by LC-MS/MS analysis. Type of data set: ADME, organism-based. The note with it: in vivo.
Data set [14] addresses T1, Adenosine receptor A2a. Description: Displacement of [3H]-ZM-241385 from human adenosine receptor A2a expressed in HEK293 cell membranes at 0.1 uM after 90 mins by liquid scintillation counting method relative to control.
In data set [15] the target is T3, Adenosine receptor A2b. The experiment in a line: Antagonist activity at human adenosine receptor A2b expressed in HEK293 cells assessed as inhibition of NECA-induced cAMP level preincubated for 15 mins followed by NECA stimulation for 15 mins by HTRF assay. Type of data set: functional, cell-based.
Data set [16] concerns HepG2. The experiment in a line: Cytotoxicity against human HepG2 cells.
Data set [17] has as its system Mus musculus. Description: Antiallergic activity in Balb/c mouse model of ovalbumin-induced allergic asthma assessed as inhibition of total cell count in BALF in ovalbumin sensitized mouse at 3 mg/kg, ip bid administered 1 hr before OVA challenge for 60 mins followed by test compound treatment 5 hrs after OVA challenge on day 12 to 15 measured on day 15. Type of data set: functional, organism-based.

Data set [18] concerns Mus musculus. The experiment in a line: Antiallergic activity in Balb/c mouse model of ovalbumin-induced allergic asthma assessed as inhibition of NECA-induced airway hyperresponsiveness in ovalbumin sensitized mouse at 3 mg/kg, ip bid administered 1 hr before OVA challenge for 60 mins followed by test compound treatment 5 hrs after OVA challenge on day 12 to 15 measured on day 15. Type of data set: functional, organism-based.

Data set [19] can be described thus: Inhibition of CYP450 (unknown origin). Type of data set: ADME, Homo sapiens.
Data set [20] deals with MDCK. Description: Cytotoxicity against MDCK cells. The note with it: Canis lupus familiaris.

Usually bioavailability stands for dose-corrected exposure relative to a reference, in per cent. Lower therefore signals poor availability. In general, Ki refers to the dissociation constant of the complex between target and ligand, obtained from inhibition or displacement. By Cmax is commonly meant the peak of the concentration-time curve. Usually inhibition stands for the percentage by which the read-out fell short of the control. For orientation: AUC(0-t) means exposure summed from dosing to a finite time, without extrapolation to infinity. A high value points to more exposure. The term half-life denotes the time in which the quantity being followed falls by half. Higher therefore signals slow decline. What is called IC50 is the concentration that inhibits the measured activity by half.

T1 sequence (P29274 whole entry): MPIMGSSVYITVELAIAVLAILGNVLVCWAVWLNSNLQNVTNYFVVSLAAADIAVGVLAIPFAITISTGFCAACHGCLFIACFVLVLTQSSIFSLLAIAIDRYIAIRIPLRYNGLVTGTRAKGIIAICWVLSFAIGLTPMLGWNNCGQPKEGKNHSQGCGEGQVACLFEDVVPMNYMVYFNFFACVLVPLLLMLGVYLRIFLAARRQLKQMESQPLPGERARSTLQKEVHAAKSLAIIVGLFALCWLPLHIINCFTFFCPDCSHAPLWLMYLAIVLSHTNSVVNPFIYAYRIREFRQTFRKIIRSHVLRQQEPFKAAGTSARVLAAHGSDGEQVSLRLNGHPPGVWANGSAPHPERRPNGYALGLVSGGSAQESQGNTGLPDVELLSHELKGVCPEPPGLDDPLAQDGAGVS

In data set [1], `CCCn1c(=O)c2[nH]c(-c3cnn(CC4CC(=O)N(c5ccc(C(F)(F)F)cc5)C4)c3)nc2n(CC)c1=O` (stereo not given) gave a bioavailability of 11%. The Ki was 460 nM in data set [2], 670 nM in data set [4], 4 nM in data set [9] and 8 nM in data set [15]. Further, the Drug metabolism in data set [3] was found to be 0.16 nmol/min/mg; in data set [6], 0.08 nmol/min/mg. The Ratio Ki is 167 in data set [5] and 115 in [7]. The concentration in [8] peaked (Cmax) at 3.8 µM. The inhibition in [10] was 4%; in data set [11], 6%; in [14], 4%. In [12], this molecule displayed an AUC(0-t) of 2.9 µM·h. Moreover, the half-life in data set [13] was 0.9 h.

`CCCn1c(=O)c2[nH]c(-c3cnn(CC(=O)N4CCN(c5cccc(C(F)(F)F)c5)CC4)c3)nc2n(CCC)c1=O`: the figures for the half-maximal inhibitory concentration (IC50) in data set [16], in data set [19] and in [20] were above 100000 nM, above 25000 nM and above 100000 nM, respectively. In addition, in data set [1], the bioavailability was found to be 65%. The inhibitory constant (Ki) was 57 nM in data set [2], 177 nM in data set [4], 1.5 nM in [9] and 4 nM in data set [15]. In addition, the figures for the Drug metabolism in [3] and in data set [6] were 0.04 nmol/min/mg and 0.16 nmol/min/mg, respectively. The inhibition entry in data set [17] and in data set [18] was “Active” throughout. Further, the Ratio Ki in [5] came out at 118; in data set [7], 38. The molecule also displayed a Cmax in [8] of 44 µM. Besides, the inhibition in [10] was 0%; in data set [11], 32%; in data set [14] it was 37%. In [12], the AUC(0-t) is 51 µM·h. In addition, the half-life in data set [13] is 1.9 h.

In data set [1], `CCCn1c(=O)c2[nH]c(-c3cnn(CC4CC(=O)N(c5ccc(C(F)(F)F)cc5)C4)c3)nc2n(CCC)c1=O` (stereo not given) returned a bioavailability of 27%. Besides, the inhibition constant Ki in data set [2] was 124 nM; in data set [4] it was 108 nM; in [9] it was 1 nM; in [15], 0.9 nM. Further, the Drug metabolism in data set [3] came out at 0.16 nmol/min/mg; in [6] it was 0.02 nmol/min/mg. Moreover, the Ratio Ki in data set [5] was 108; in data set [7], 124. In [8], this molecule gave a Cmax of 16.7 µM. Further, the inhibition in data set [10] came to 0%; in data set [11], 49%; in data set [14], 52%. In data set [12], this molecule registered an area under the curve AUC(0-t) of 21 µM·h. The molecule also had a half-life in [13] of 2.4 h.
